This note sets out measurements from US8546563B2, “Compounds which modulate the CB2 receptor” (Boehringer Ingelheim International GmbH, priority 2007, dated 2013).

The target in this assay is T1, human CB2R (Homo sapiens, UniProt P34972).
T1 construct: host or cells: CHO cells
T1 sequence (P34972 whole entry): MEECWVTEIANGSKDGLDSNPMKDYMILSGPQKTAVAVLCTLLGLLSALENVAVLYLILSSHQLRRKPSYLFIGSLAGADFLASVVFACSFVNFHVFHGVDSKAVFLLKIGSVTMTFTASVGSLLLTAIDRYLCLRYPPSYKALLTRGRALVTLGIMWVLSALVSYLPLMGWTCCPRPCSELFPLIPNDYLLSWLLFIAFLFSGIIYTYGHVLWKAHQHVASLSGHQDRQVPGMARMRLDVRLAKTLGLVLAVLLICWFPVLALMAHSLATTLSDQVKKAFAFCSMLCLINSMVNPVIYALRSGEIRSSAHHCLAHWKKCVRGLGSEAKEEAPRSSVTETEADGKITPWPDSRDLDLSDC
Briefly: CB2R mediated modulation of cAMP synthesis. Format: cell-based. To be noted: CHO cells expressing human CB2R; inhibition of forskolin-stimulated cAMP synthesis (agonist); read-out: CB2 EC50. Here is the method:
B. CB2R Mediated Modulation of cAMP Synthesis:
Compounds of the invention were evaluated for their CB2 agonist or inverse agonistic activity in accordance with the following experimental method.
CHO cells expressing human CB2R (Euroscreen) were plated at a density of 5000 cells per well in 384 well plates and incubated overnight at 37° C. After removing the media, the cells were treated with test compounds diluted in stimulation buffer containing 1 mM IBMX, 0.25% BSA and 10 uM Forskolin. The assay was incubated for 30 minutes at 37° C. Cells were lysed and the cAMP concentration was measured using DiscoverX-XS cAMP kit, following the manufacturer's protocol. In this setting, agonists will decrease forskolin induced production of cAMP while inverse agonists will further increase forskolin induced production of cAMP. EC50 of agonists were calculated as follows. The maximal amount of cAMP produced by forskolin compared to the level of cAMP inhibited by 1 uM CP55940 is defined as 100%. The EC50 value of each test compound was determined as the concentration at which 50% of the forskolin-stimulated cAMP synthesis was inhibited. Data was analyzed using a four-parameter logistic model. (Model 205 of XLfit 4.0).
For `CCc1sc(NC(=O)C(C)(C)S(=O)(=O)N2CCC2)nc1-c1ccccc1` [Example 54, 2-(Azetidine-1-sulfonyl)-N-(5-ethyl-4-phenyl-thiazol-2-yl)-2-methyl-propionamide], the EC50 amounted to 6.6 nM.
Regarding `CC(C)(C(=O)Nc1nnc(-c2ccccc2)[nH]1)S(=O)(=O)N1CCOCC1`, the EC50 was found to be 86 nM.
For the molecule `CC(C)(C)c1cc(NC(=O)C(C)(C)S(=O)(=O)NC2CCCC2)no1` [Example 10, N-(5-tert-Butyl-isoxazol-3-yl)-2-cyclopentylsulfamoyl-2-methyl-propionamide], the EC50 came to 13 nM.
With `CC(C)(C)c1csc(NC(=O)C(C)(C)S(=O)(=O)N2CCC2)n1` [Example 44, 2-(Azetidine-1-sulfonyl)-N-(4-tert-butyl-thiazol-2-yl)-2-methyl-propionamide], the concentration giving a half-maximal response (EC50) came out at 14 nM.
Regarding `CN(c1ccccc1)S(=O)(=O)C(C)(C)C(=O)Nc1nc(C(C)(C)C)cs1` [N-(4-tert-Butyl-thiazol-2-yl)-2-methyl-2-(methyl-phenyl-sulfamoyl)-propionamide], the EC50 was 42 nM.
The value for `CC(C)(C)c1cc(NC(=O)C(C)(C)S(=O)(=O)N2CCC(F)C2)sn1` (stereo not shown) was 83 nM; that for `CCCCNS(=O)(=O)C(C)(C)C(=O)Nc1nc(C(C)(C)C)cs1` [Example 25, 2-Butylsulfamoyl-N-(4-tert-butyl-thiazol-2-yl)-2-methyl-propionamide] was 32 nM; that for `CC(C)(C(=O)Nc1nc2c(s1)CCCC2)S(=O)(=O)N1CCC1` was 62 nM.
Consider `CC(C)(C)c1cc(NC(=O)C(C)(C)S(=O)(=O)N2CCC2)no1` [Example 5, 2-(Azetidine-1-sulfonyl)-N-(5-tert-butyl-isoxazol-3-yl)-2-methyl-propionamide], for which the EC50 worked out at 3.6 nM.
The value for `CC1CCCCN1S(=O)(=O)C(C)(C)C(=O)Nc1cc(C(C)(C)C)on1` (stereo not shown) was 97 nM; that for `CCCCN(C)S(=O)(=O)C(C)(C)C(=O)Nc1cc(C(C)(C)C)on1` [Example 41, N-(5-tert-Butyl-isoxazol-3-yl)-2-(butyl-methyl-sulfamoyl)-2-methyl-propionamide] was 1.7 nM.
The value for `CCC(C)c1cc(NC(=O)C(C)(C)S(=O)(=O)N2CCC2)on1` (stereo not shown) [Example 73, 2-(Azetidine-1-sulfonyl)-N-(3-sec-butyl-isoxazol-5-yl)-2-methyl-propionamide] was 14 nM; that for `CC(C)(C)c1cc(NC(=O)C(C)(C)S(=O)(=O)N2CCC(F)(F)CC2)no1` [N-(5-tert-Butyl-isoxazol-3-yl)-2-(4,4-difluoro-piperidine-1-sulfonyl)-2-methyl-propionamide] was 2.5 nM.
In the case of `CC(C)(C)c1cc(NC(=O)C(C)(C)S(=O)(=O)N2CCOCC2)no1` [Example 40], the EC50 is 47 nM.
On to `CC(C)(C(=O)Nc1nsc(-c2ccccc2)n1)S(=O)(=O)N1CCC1`, for which the EC50 came to 72 nM.
For the molecule `CCCCNS(=O)(=O)C(C)(C)C(=O)Nc1cc(C(C)(C)C)on1` [Example 24, N-(5-tert-Butyl-isoxazol-3-yl)-2-butylsulfamoyl-2-methyl-propionamide], the EC50 amounted to 10 nM.
The value for `Cn1nc(C(C)(C)C)cc1NC(=O)C(C)(C)S(=O)(=O)N1CCOCC1` was 79 nM; that for `CC(C)(C)c1cc(NC(=O)C(C)(C)S(=O)(=O)N2CCCC2)no1` [Example 6, N-(5-tert-Butyl-isoxazol-3-yl)-2-methyl-2-(pyrrolidine-1-sulfonyl)-propionamide] was 1.3 nM.
The value for `CC(C)(C)c1cc(NC(=O)C(C)(C)S(=O)(=O)N2CCOCC2)on1` [Example 85, N-(3-tert-Butyl-isoxazol-5-yl)-2-methyl-2-(morpholine-4-sulfonyl)-propionamide] was 15 nM.
Regarding `CC(C)(C(=O)Nc1nc(C2CCCCC2)cs1)S(=O)(=O)N1CCC1` [Example 55, 2-(Azetidine-1-sulfonyl)-N-(4-cyclohexyl-thiazol-2-yl)-2-methyl-propionamide], the EC50 worked out at 22 nM.
In the case of `CC(C)(C(=O)Nc1ccc(C(F)(F)F)cc1F)S(=O)(=O)N1CCC1` it was 86 nM; in that of `CC(C)(C(=O)Nc1nc(-c2ccc(F)cc2)cs1)S(=O)(=O)N1CCC1`, 19 nM; in that of `CC(C)(C)c1cc(NC(=O)C(C)(C)S(=O)(=O)N2CC[C@@H](F)C2)no1`, 5.7 nM.
The value for `CC(C)(C(=O)Nc1nc(-c2ccc(Cl)cc2)cs1)S(=O)(=O)N1CCC1` was 8.9 nM; that for `CC(C)(C)c1ccc(NC(=O)C(C)(C)S(=O)(=O)N2CCC2)cc1` [Example 58, 2-(Azetidine-1-sulfonyl)-N-(4-tert-butyl-phenyl)-2-methyl-propionamide] was 3.1 nM; that for `CC(C)(C)c1cccc(NC(=O)C(C)(C)S(=O)(=O)N2CCC2)c1` [Example 65, 2-(Azetidine-1-sulfonyl)-N-(3-tert-butyl-phenyl)-2-methyl-propionamide] was 17 nM.
For `CC(C)(C(=O)Nc1nc(-c2cccs2)cs1)S(=O)(=O)N1CCC1` [Example 53, 2-(Azetidine-1-sulfonyl)-2-methyl-N-(4-thiophen-2-yl-thiazol-2-yl)-propionamide], the EC50 was found to be 41 nM.
The value for `CC(C)(C(=O)Nc1nnc(-c2ccccc2)[nH]1)S(=O)(=O)N1CCC(F)C1` (stereo not shown) was 5.1 nM; that for `CC(C)(C)c1cc(NC(=O)C(C)(C)S(=O)(=O)NC2CC2)no1` [Example 7, N-(5-tert-Butyl-isoxazol-3-yl)-2-cyclopropylsulfamoyl-2-methyl-propionamide] was 58 nM; that for `CC(C)(C(=O)Nc1nc2ccccc2s1)S(=O)(=O)N1CCC1` [Example 50, 2-(Azetidine-1-sulfonyl)-N-benzothiazol-2-yl-2-methyl-propionamide] was 26 nM.
As to `CC(C)c1cc(NC(=O)C(C)(C)S(=O)(=O)N2CCC2)on1` [Example 74, 2-(Azetidine-1-sulfonyl)-N-(3-isopropyl-isoxazol-5-yl)-2-methyl-propionamide], the concentration giving a half-maximal response (EC50) was 108 nM.
`CC(C)(C)c1cc(NC(=O)C(C)(C)S(=O)(=O)N2CCCCC2)no1` [Example 9, N-(5-tert-Butyl-isoxazol-3-yl)-2-methyl-2-(piperidine-1-sulfonyl)-propionamide]: the EC50 worked out at 6.5 nM.
Take `CC(C)(C(=O)Nc1nnc(-c2ccccc2)[nH]1)S(=O)(=O)N1CCC1`: the EC50 amounted to 11 nM.
In the case of `Cc1nc(NC(=O)C(C)(C)S(=O)(=O)N2CCC2)sc1C(C)(C)C` it was 2.5 nM; in that of `CC(C)(C)c1cc(NC(=O)C(C)(C)S(=O)(=O)N2CC(F)(F)C2)no1`, 5 nM; in that of `CCCNS(=O)(=O)C(C)(C)C(=O)Nc1cc(C(C)(C)C)on1` [Example 35, N-(5-tert-Butyl-isoxazol-3-yl)-2-methyl-2-propylsulfamoyl-propionamide], 33 nM.
In the case of `CC(C)(C)c1cc(NC(=O)C(C)(C)S(=O)(=O)NC2CCCCC2)no1` [Example 8, N-(5-tert-Butyl-isoxazol-3-yl)-2-cyclohexylsulfamoyl-2-methyl-propionamide], the concentration for a half-maximal effect (EC50) stood at 2.4 nM.
Regarding `CC(C)(C)c1cc(NC(=O)C(C)(C)S(=O)(=O)N2CCC2)ccn1` [Example 82, 2-(Azetidine-1-sulfonyl)-N-(2-tert-butyl-pyridin-4-yl)-2-methyl-propionamide], the EC50 is 37 nM.
As to `CC(C)(C)c1cc(NC(=O)C(C)(C)S(=O)(=O)N2CCC2)on1` [Example 47, 2-(Azetidine-1-sulfonyl)-N-(3-tert-butyl-isoxazol-5-yl)-2-methyl-propionamide], the concentration giving a half-maximal response (EC50) amounted to 20 nM.
As for `Cc1sc(NC(=O)C(C)(C)S(=O)(=O)N2CCC2)nc1-c1ccc(F)cc1`, the EC50 was determined as 17 nM.
